Assay results as given in PubChem BioAssay AID330 (DTP/NCI, 2004).
Where “and” joins values, the source holds several entries; their conditions need not be identical. Equal entries are not always repeated. Inconclusive results and toxic doses are left out. The calls were made as follows: active = survival T/C of 150% or more; inactive = T/C below 125% in these data.

System: P388 leukemia ip, CD2F1 mice, survival T/C
Experiment: NCI In Vivo Anticancer Drug Screen. Data for tumor model P388 Leukemia (intraperitoneal) in CD2F1 (CDF1) mice
Conditions: endpoint: median survival time, higher = longer survival
Outline: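 Mice carrying the transplanted tumor received test compound or vehicle. Survival was recorded in each group, and the value is the treated-group measurement divided by that of the vehicle-treated control group.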

[1] = dose: 60.0 mg/kg/injection, schedule: Q01DX005 (ip), vehicle: saline with Tween-80
[2] = dose: 120.0 mg/kg/injection, schedule: Q01DX005 (ip), vehicle: saline with Tween-80
[3] = dose: 12.5 mg/kg/injection, schedule: Q01DX009 (ip), vehicle: saline
[4] = dose: 25.0 mg/kg/injection, schedule: Q01DX009 (ip), vehicle: saline
[5] = dose: 50.0 mg/kg/injection, schedule: Q01DX009 (ip), vehicle: saline
[6] = dose: 25.0 mg/kg/injection, schedule: Q01DX009 (ip), vehicle: saline with Tween-80
[7] = dose: 50.0 mg/kg/injection, schedule: Q01DX009 (ip), vehicle: saline with Tween-80
[8] = dose: 50.0 mg/kg/injection, schedule: Q01DX005 (ip), vehicle: Klucel (hydroxypropylcellulose) (HPC)
[9] = dose: 100.0 mg/kg/injection, schedule: Q01DX005 (ip), vehicle: Klucel (hydroxypropylcellulose) (HPC)
[10] = dose: 200.0 mg/kg/injection, schedule: Q01DX005 (ip), vehicle: Klucel (hydroxypropylcellulose) (HPC)
[11] = dose: 50.0 mg/kg/injection, schedule: Q01DX005 (ip), vehicle: saline with Tween-80
[12] = dose: 100.0 mg/kg/injection, schedule: Q01DX005 (ip), vehicle: saline with Tween-80
[13] = dose: 200.0 mg/kg/injection, schedule: Q01DX005 (ip), vehicle: saline with Tween-80
[14] = dose: 100.0 mg/kg/injection, schedule: Q01DX009 (ip), vehicle: saline
[15] = dose: 200.0 mg/kg/injection, schedule: Q01DX009 (ip), vehicle: saline
[16] = dose: 50.0 mg/kg/injection, schedule: Q01DX009 (ip), vehicle: Klucel (hydroxypropylcellulose) (HPC)
[17] = dose: 100.0 mg/kg/injection, schedule: Q01DX009 (ip), vehicle: Klucel (hydroxypropylcellulose) (HPC)
[18] = dose: 200.0 mg/kg/injection, schedule: Q01DX009 (ip), vehicle: Klucel (hydroxypropylcellulose) (HPC)

Measured: T/C

COc1nc(NC2OCC(OC(C)=O)C(OC(C)=O)C2OC(C)=O)c(N=C(C)C(C)=O)c(=O)n1C (centres undefined)
inactive: [1] 86 % of control | [2] 92 % of control | dose: 240.0 mg/kg/injection, schedule: Q01DX005 (ip), vehicle: saline with Tween-80 94 % of control

O=S(=O)(O)O.[N-]=C(N)/N=C(\[NH-])N.[N-]=C(N)/N=C(\[NH-])N.[N-]=C(N)NC(=[N-])N.[Rh+3]
inactive: [3] 100 % of control | [4] 103 % of control | [5] 107 % of control

O=P(c1ccccc1)(c1ccccc1)c1ccccc1.O=P(c1ccccc1)(c1ccccc1)c1ccccc1.O=P(c1ccccc1)(c1ccccc1)c1ccccc1.O=P(c1ccccc1)(c1ccccc1)c1ccccc1.[Ni+2].[O-][Cl+3]([O-])([O-])O
inactive: dose: 12.5 mg/kg/injection, schedule: Q01DX009 (ip), vehicle: saline with Tween-80 96 % of control | [6] 101 % of control | [7] 90 % of control and 95 % of control

Nc1ccc2cc(Cl)[nH]c(=O)c2c1
inactive: [8] 100 % of control | [9] 94 % of control | [10] 97 % of control

CCOC(=O)c1cc(Br)c(=O)n(C)c1
inactive: [11] 96 % of control | [12] 95 % of control | [13] 89 % of control

CCCCCCCCCCCCCCCCOS(=O)(=O)O (tested in a mixture with another compound)
inactive: dose: 20.0 mg/kg/injection, schedule: Q01DX009 (ip), vehicle: saline with Tween-80 99 % of control | dose: 40.0 mg/kg/injection, schedule: Q01DX009 (ip), vehicle: saline with Tween-80 92 % of control

CCCCOC(=O)C1C2CCC(O2)C1C(N)=O (centres undefined)
inactive: [1] 99 % of control | [2] 100 % of control

O=C(O)CN(CC(=O)O)C1CC1N(CC(=O)O)CC(=O)O (centres undefined)
inactive: [5] 97 % of control | dose: 100.0 mg/kg/injection, schedule: Q01DX001 (ip), vehicle: saline 96 % of control | [14] 100 % of control | dose: 200.0 mg/kg/injection, schedule: Q01DX001 (ip), vehicle: saline 100 % of control | [15] 97 % of control | dose: 400.0 mg/kg/injection, schedule: Q01DX001 (ip), vehicle: saline 97 % of control

CCOC(=O)NC(NC(=O)OCC)c1ccc(Cl)cc1
inactive: dose: 100.0 mg/kg/injection, schedule: Q04DX003 (ip), vehicle: saline 99 % of control | dose: 200.0 mg/kg/injection, schedule: Q04DX003 (ip), vehicle: saline 94 % of control | dose: 400.0 mg/kg/injection, schedule: Q04DX003 (ip), vehicle: saline 107 % of control

CCOC(=O)C1=C(O)C(=O)C=C(O)C1=N
inactive: dose: 60.0 mg/kg/injection, schedule: Q01DX005 (ip), vehicle: saline 94 % of control | dose: 120.0 mg/kg/injection, schedule: Q01DX005 (ip), vehicle: saline 94 % of control | dose: 240.0 mg/kg/injection, schedule: Q01DX005 (ip), vehicle: saline 97 % of control

CCNC(=S)N=Nc1c(O)[nH]c2ccccc12
inactive: [3] 90 % of control | [4] 89 % of control | [5] 88 % of control and 89 % of control

COc1ccc(C2=CC(OO)(C(C)(C)C)C(=O)C(C(C)(C)C)=C2)cc1.Oc1ccccc1C=NCCC[N-]CCCN=Cc1ccccc1O.[Co] (centres undefined)
inactive: [16] 101 % of control | [17] 101 % of control | [18] 100 % of control

O=C(O)C(O)CBr (centres undefined)
inactive: [3] 100 % of control | [4] 95 % of control | dose: 25.0 mg/kg/injection, schedule: Q04DX003 (ip), vehicle: saline 91 % of control | [5] 95 % of control | dose: 50.0 mg/kg/injection, schedule: Q04DX003 (ip), vehicle: saline 87 % of control

COc1cc(NC(C)CCCN)c2ncccc2c1 (centres undefined)
inactive: dose: 12.5 mg/kg/injection, schedule: Q01DX009 (ip), vehicle: saline sonified 118 % of control | dose: 25.0 mg/kg/injection, schedule: Q01DX009 (ip), vehicle: saline sonified 109 % of control | dose: 50.0 mg/kg/injection, schedule: Q01DX009 (ip), vehicle: saline sonified 90 % of control

CC1C2=C(CC(=O)NC2=O)C(=O)N1Cc1ccccc1 (centres undefined)
inactive: [16] 103 % of control | [17] 106 % of control | [18] 97 % of control

CCOC(=O)C1CC1C1=C(C)c2cc3[n-]c(cc4nc(cc5[n-]c(cc1n2)c(C)c5CCC(=O)OC)C(CCC(=O)OC)=C4C)c(C)c3C1CC1C(=O)OCC.[Zn+2] (centres undefined)
inactive: [11] 95 % of control | [12] 89 % of control | [13] 89 % of control

CC(=O)n1oc2c(Br)cc(Br)cc2c1=O
inactive: [8] 116 % of control | [9] 103 % of control | [10] 107 % of control

OCC(CCc1c[nH]c2ccccc12)c1c[nH]c2ccccc12 (centres undefined)
inactive: dose: 60.0 mg/kg/injection, schedule: Q01DX005 (ip), vehicle: Klucel (hydroxypropylcellulose) (HPC) 90 % of control | dose: 120.0 mg/kg/injection, schedule: Q01DX005 (ip), vehicle: Klucel (hydroxypropylcellulose) (HPC) 90 % of control | dose: 240.0 mg/kg/injection, schedule: Q01DX005 (ip), vehicle: Klucel (hydroxypropylcellulose) (HPC) 93 % of control

O=C1c2ccccc2C2(c3ccc(O)cc3)c3ccccc3Oc3cccc1c32 (centres undefined)
inactive: [11] 90 % of control | [12] 92 % of control | [13] 95 % of control

OCc1cccc2c1C(O)c1ccccc1-2 (centres undefined)
inactive: [8] 100 % of control | [9] 104 % of control | [10] 100 % of control

O=C1C(=O)N(c2ccccc2)C(=O)N1CCN1C(=O)C(=O)N(c2ccccc2)C1=O
inactive: dose: 3.75 mg/kg/injection, schedule: Q01DX005 (ip), vehicle: saline with Tween-80 100 % of control | dose: 7.5 mg/kg/injection, schedule: Q01DX005 (ip), vehicle: saline with Tween-80 90 % of control | dose: 15.0 mg/kg/injection, schedule: Q01DX005 (ip), vehicle: saline with Tween-80 95 % of control

O=C1NC(=O)C2(OC3c4ccccc4C=CN3C3=C2C(=O)CCC3)C(=O)N1 (centres undefined)
inactive: [11] 94 % of control | [12] 94 % of control | [13] 92 % of control

C=C1C(=O)C23C(OC(=O)/C=C/C)C1CCC2C12COC3(O)C(O)C1C(C)(C)CCC2O (centres undefined)
inactive: dose: 3.75 mg/kg/injection, schedule: Q01DX009 (ip), vehicle: saline with Tween-80 103 % of control | dose: 7.5 mg/kg/injection, schedule: Q01DX009 (ip), vehicle: saline with Tween-80 108 % of control | dose: 15.0 mg/kg/injection, schedule: Q01DX009 (ip), vehicle: saline with Tween-80 112 % of control

Cc1ccc(NC2OC(CO)C(O)C(O)C2O)cc1 (centres undefined)
inactive: [5] 104 % of control | [14] 111 % of control | [15] 98 % of control

CC(=O)NC1=NN(C(C)=O)C(c2ccccc2)S1=O (centres undefined)
inactive: [11] 108 % of control | [12] 107 % of control

O=C(O)COc1ccccc1P(=O)(c1ccccc1)c1ccccc1
inactive: [8] 101 % of control | [9] 102 % of control | [10] 103 % of control

CCCCOC1OCN(C(C)(C)C)CC1(C)C (centres undefined)
inactive: [6] 101 % of control | [7] 100 % of control | dose: 100.0 mg/kg/injection, schedule: Q01DX009 (ip), vehicle: saline with Tween-80 113 % of control | dose: 200.0 mg/kg/injection, schedule: Q01DX009 (ip), vehicle: saline with Tween-80 111 % of control
